Consider four compounds from ChEMBL document CHEMBL4311934, “Exploration of [2 + 2 + 2] cyclotrimerisation methodology to prepare tetrahydroisoquinoline-based compounds with potential aldo-keto reductase 1C3 target affinity” (Medchemcomm, 2019).

A value given as a limit tells only on which side of the number the result lay.

For experiment [1], the target named is T1, Aldo-keto reductase family 1 member C3 (Homo sapiens, UniProt P42330).
T1 sequence (P42330 whole entry): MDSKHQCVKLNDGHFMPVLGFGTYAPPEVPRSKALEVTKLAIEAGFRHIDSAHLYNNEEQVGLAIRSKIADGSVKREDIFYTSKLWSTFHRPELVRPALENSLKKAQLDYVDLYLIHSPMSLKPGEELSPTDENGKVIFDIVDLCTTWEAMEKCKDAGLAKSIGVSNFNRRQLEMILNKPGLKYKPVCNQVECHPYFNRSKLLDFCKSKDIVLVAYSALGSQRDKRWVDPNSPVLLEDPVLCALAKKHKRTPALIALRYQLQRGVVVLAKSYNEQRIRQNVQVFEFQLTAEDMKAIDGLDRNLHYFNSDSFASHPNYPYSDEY
In words: Inhibition of N-terminal GST-tagged recombinant human AKR1C3 expressed in Escherichia coli BL21 (DE) Codon Plus RP cells assessed as reduction in NADPH production using S-tetralol as substrate in presence of NADP+ by fluorimetry assay.

For experiment [2], the target named is T2, Aldo-keto reductase family 1 member C2 (Homo sapiens, UniProt P52895).
T2 sequence (P52895 whole entry): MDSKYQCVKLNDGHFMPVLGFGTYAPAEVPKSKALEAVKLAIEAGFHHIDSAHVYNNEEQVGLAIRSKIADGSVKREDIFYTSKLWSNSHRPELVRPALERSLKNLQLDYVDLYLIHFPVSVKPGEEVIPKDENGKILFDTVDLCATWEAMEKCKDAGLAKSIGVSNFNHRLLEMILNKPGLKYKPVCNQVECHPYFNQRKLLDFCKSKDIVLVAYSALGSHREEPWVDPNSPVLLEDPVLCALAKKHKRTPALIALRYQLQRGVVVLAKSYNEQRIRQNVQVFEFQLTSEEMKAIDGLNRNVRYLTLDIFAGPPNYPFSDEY
In words: Inhibition of N-terminal GST-tagged recombinant human AKR1C2 expressed in Escherichia coli BL21 (DE) Codon Plus RP cells assessed as reduction in NADPH production using S-tetralol as substrate in presence of NADP+ by fluorimetry assay.

For experiment [3], the target named is T3, Aldo-keto reductase family 1 member C3 (Homo sapiens) (UniProt P42330).
T3 sequence (whole entry): T1 sequence (P42330 whole entry)
In words: Inhibition of N-terminal GST-tagged recombinant human AKR1C3 expressed in Escherichia coli BL21 (DE) Codon Plus RP cells assessed as reduction in NADPH production at 50 uM using S-tetralol as substrate in presence of NADP+ by fluorimetry assay relative to control.

In experiment [4] the target is T4, Aldo-keto reductase family 1 member C2 (Homo sapiens) (UniProt P52895).
T4 sequence (whole entry): T2 sequence (P52895 whole entry)
In words: Inhibition of N-terminal GST-tagged recombinant human AKR1C2 expressed in Escherichia coli BL21 (DE) Codon Plus RP cells assessed as reduction in NADPH production 50 uM using S-tetralol as substrate in presence of NADP+ by fluorimetry assay relative to control.

Experiment [5] is filed under the species Homo sapiens. In words: Selectivity index, ratio of IC50 for N-terminal GST-tagged recombinant human AKR1C2 expressed in Escherichia coli BL21 (DE) Codon Plus RP cells to IC50 for N-terminal GST-tagged recombinant human AKR1C3 expressed in Escherichia coli BL21 (DE) Codon Plus RP cells.

By IC50 is commonly meant the midpoint of a concentration-inhibition curve. Take `O=C(O)c1cc2c(cc1C(=O)O)CN1C(=O)CCC1C2` (stereo unspecified): the IC50 in experiment [1] was determined as 23.1 µM; in experiment [2], 27.3 µM.
On the same counts, the results for `COc1ccc2cc3[n+](cc2c1OC)CCc1cc2c(cc1-3)OCO2` [BERBERINE] are 5.9 µM and 6.71 µM.
Usually inhibition stands for the relative decrease from the control value, in per cent. For `O=C1CCC2Cc3cc(CO)c(CO)cc3CN12` (stereo unspecified), the IC50 in experiment [1] and in experiment [2] was more than 50 µM in each case. In addition, the results for the inhibition in experiment [3] and in experiment [4] were 25% and 26.9%, respectively.
On to `CCOC(=O)c1cc2c(cc1C(=O)OCC)CN1C(=O)CCC1C2` (stereo unspecified), for which the Ratio IC50 in experiment [5] was determined as 8. The IC50 was determined as 11.7 µM in experiment [1] and 96.2 µM in experiment [2].
